From EP2292237A1, “Sigma ligands for the prevention or treatment of pain induced by chemotherapy” (Laboratorios del. Dr. Esteve, S.A., priority 2009, dated 2011)
Entries after “also recorded” stand apart in the source; their conditions may differ. Like-named read-outs stand apart in the source and are kept apart here.

Assays:
CD-1 mice [1] = test: Acetone test: expression of paclitaxel-induced cold allodynia, single s.c. injection on day 10; type: in vivo; conditions: for expression of cold allodynia induced by paclitaxel: acute treatment 32-64 mg/kg s.c. on day 10 in mice pretreated with paclitaxel; for response to acetone of control (paclitaxel-vehicle treated) animals: acute treatment 32 or 64 mg/kg s.c. on day 10; for duration of hind paw licking/biting (acetone test) versus saline: single s.c. injection 64 mg/kg in mice pretreated with paclitaxel-vehicle (Figs. 7 and 8)
Method: Experiments were performed in CD-1 mice (Charles River, U.S.A.) with at least n = 10/experimental group. Mice weighing 25-30 g were used. The animals were housed in colony cages with free access to food and water prior to the experiments. They were maintained in temperature- and light-controlled rooms (22 ± 1 °C, lights on at 08.00 h and off at 20.00 h, air replacement every 20 min). Testing took place during the light phase (from 9.00 h to 15.00 h).
Therefore, the cumulative dose was 10 mg/kg per mouse.
Compounds 1a and 1b were dissolved in normal saline just before administration and applied at doses of 32 or 64 mg/kg subcutaneously.
The response of the animals to the different nociceptive stimuli was tested subsequently during 2-4 weeks, depending on the test (see below), without any additional treatment. Each animal was tested only in one nociceptive model. […] Each animal received only one dose of compound 1 a or 1b and was tested in only one nociceptive model.
Procedure for assessment of cold allodynia. Cold allodynia was tested as previously described by Smith et al. in Life Sci., 2004, 74(21), 2593-604, by gently touching the plantar skin of the hind paws with an acetone bubble formed with a syringe connected to a thin polyethylene tube. The mice were housed and habituated for 30 min in transparent plastic boxes (7 x 7 x 13 cm) with a floor made of wire mesh. After the adaptation period, acetone was applied alternately three times to each paw at intervals of 30 s, and the duration and frequency of licking or biting were recorded. A small mirror was placed behind the chambers to allow clear observation of the paws. The time spent licking or biting the paw was recorded by a stopwatch and represented as the cumulative time of licking/biting in the six measurements. Since licking persisting more than 10 s in the experiments was very unusual, a cut-off time of 10 s was used for each trial. […]
On that day, duration of hind paw licking/biting was recorded immediately before (time 0) and at several times (60, 120 and 180 min) after the injection of compound 1 a, compound 1 b or saline.
On that day, duration of hind paw licking/biting was recorded immediately before (time 0) and at several times (60, 120 and 180 min) after the injection of compound 1a, compound 1b or saline.

CD-1 mice [2] = test: Acetone test: development of paclitaxel-induced cold allodynia, co-administration with paclitaxel or paclitaxel vehicle; type: in vivo; conditions: for duration of acetone-induced paw licking/biting: 64 mg/kg s.c. 30 min before each i.p. paclitaxel dose (2 mg/kg), versus paclitaxel + saline; for duration of acetone-induced paw licking/biting / days with statistically significant differences in duration of acetone-induced licking/biting versus paclitaxel + saline: days 1 to 5; for days with statistically significant differences in duration of acetone-induced licking/biting versus paclitaxel + saline: 64 mg/kg s.c. 30 min before each i.p. paclitaxel dose, days after the first dose of paclitaxel; for response of the animals to acetone (duration of hind paw licking/biting): co-administration days 1 to 5 of paclitaxel-vehicle i.p. and compound 64 mg/kg s.c., versus paclitaxel-vehicle + saline, hydrochloride, 64 mg/kg; for development of cold allodynia induced by paclitaxel: co-administration of paclitaxel (2 mg/kg, i.p.) and compound (64 mg/kg, s.c.)
patients = conditions: cited from earlier work

Structure (SMILES) | response to acetone of control (paclitaxel-vehicle treated) animals (CD-1 mice [1]) | duration of hind paw licking/biting (acetone test) versus saline (CD-1 mice [1]) | duration of acetone-induced paw licking/biting (CD-1 mice [2]) | days with statistically significant differences in duration of acetone-induced licking/biting versus paclitaxel + saline (CD-1 mice [2]) | response of the animals to acetone (duration of hind paw licking/biting) (CD-1 mice [2]) | development of cold allodynia induced by paclitaxel (CD-1 mice [2]) | further results
Cl.c1ccc(-n2ncc3c2CCC[C@H]3CCN2CCOCC2)cc1 [compound 1a, (S)-4,5,6,7-tetrahydro-4-(2-(morpholin-4-yl)ethyl)-1-phenyl-1H-indazole hydrochloride] | did not affect | No statistically significant differences | reduced | from day 7 to day 21 | did not significantly modify; also recorded: No statistically significant differences | inhibited | times at which the effect was statistically significant in comparison with the saline-treated group (CD-1 mice [1]; acute treatment 32-64 mg/kg s.c. on day 10, time after administration of the drug): at all times evaluated from 60 to 180 min; expression of cold allodynia induced by paclitaxel (CD-1 mice [1]; hydrochloride): dose-dependently inhibited
Cl.c1ccc(-n2ncc3c2CCC[C@@H]3CCN2CCOCC2)cc1 [compound 1b, (R)-4,5,6,7-tetrahydro-4-(2-(morpholin-4-yl)ethyl)-1-phenyl-1H-indazole hydrochloride] | did not affect | No statistically significant differences | reduced | at days 7, 14 and 21 | did not significantly modify; also recorded: No statistically significant differences | inhibited | expression of cold allodynia induced by paclitaxel (CD-1 mice [1]): inhibited
O=C(O)C(=O)O.c1ccc(-n2ncc3c2CCCC3CCN2CCOCC2)cc1 (stereo not shown) [compound 2, 4,5,6,7-tetrahydro-4-(2-(morpholin-4-yl)ethyl)-1-phenyl-1H-indazole oxalate] | – | – | – | – | – | – | duration of acetone-induced licking/biting (CD-1 mice [1]; acute injection 32-64 mg/kg s.c., 10 days after the first dose of paclitaxel): dose-dependently reduced
CC(=O)O[C@H]1C(=O)[C@@]2(C)[C@H]([C@H](OC(=O)c3ccccc3)[C@]3(O)C[C@H](OC(=O)[C@H](O)[C@@H](NC(=O)c4ccccc4)c4ccccc4)C(C)=C1C3(C)C)[C@]1(OC(C)=O)CO[C@@H]1C[C@@H]2O [paclitaxel, Paclitaxel, reference compound] | – | – | – | – | – | – | control animals treated with paclitaxel that did not show cold allodynia (CD-1 mice [1]; 'non-responders': less than 2 s licking/biting on days 7 and 10 after paclitaxel): Around 33%; cold allodynia (increase in the duration of acetone-induced paw licking/biting) (CD-1 mice [1]; paclitaxel i.p. once daily days 1 to 5, evaluated 10 days after the first dose): developed cold allodynia; progressing to dose-limiting neurotoxicity in % of patients (patients; paclitaxel dose 135 mg/m^2): 0%; progressing to dose-limiting neurotoxicity in % of patients (patients; paclitaxel dose 175 mg/m^2): 21%; progressing to dose-limiting neurotoxicity in % of patients (patients; paclitaxel dose 250-300 mg/m^2): 71%; duration of paw licking/biting in the acetone test (CD-1 mice [2]; paclitaxel (i.p., 2 mg/kg) and saline (s.c.) co-administered days 1 to 5, began on day 7, maximum on day 14): significant increase
